These compounds were tested against NQO1 protein (Homo sapiens, UniProt P15559) (assay: NQO1 activity measurement (cytochrome C reduction)). Settings: 5 ng NQO1 protein, 200 μM NADH, 77 μM cytochrome C, 37° C., absorbance 550 nm for 10 minutes.
Format: biochemical
Experimental: An enzyme reaction solution included 25 mM Tris/HCl (pH 7.4), 0.14% bovine serum albumin, 200 μM NADH, 77 μM cytochrome C, and 5 ng of NQO1 protein. Enzymatic reaction was initiated by adding NADH and performed at 37° C. In this regard, a reaction rate was measured by observing absorbance, which was increased due to reduction of cytochrome C, at 550 nm for 10 minutes and NQO1 activity was represented as an amount of reduced cytochrome C [nmol cytochrome C reduced/min/μg protein].
Extinction coefficient for cytochrome C:21.1 mmol/L/cm=21.1 μmol/ml/cm

Sequence of NQO1 protein (P15559 whole entry, species assumed): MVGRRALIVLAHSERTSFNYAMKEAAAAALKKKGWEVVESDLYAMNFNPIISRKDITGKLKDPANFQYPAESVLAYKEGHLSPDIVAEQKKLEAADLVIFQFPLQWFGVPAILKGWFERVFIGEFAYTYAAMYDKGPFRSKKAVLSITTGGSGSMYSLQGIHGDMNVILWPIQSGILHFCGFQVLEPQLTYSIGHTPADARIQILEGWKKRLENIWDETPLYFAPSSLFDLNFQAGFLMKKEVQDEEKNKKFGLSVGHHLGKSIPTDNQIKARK

| SMILES | NQO1 activity (5 μM, [nmol cytochrome C reduced/min/μg protein]) |
| --- | --- |
| CC(C)c1nc2c([nH]1)C(=O)C(=O)c1cc(NC(=O)C3CC3)ccc1-2 [Example 20] | 6.4 nmol cytochrome C reduced/min/μg protein |
| Cc1cc(F)ccc1OCc1nc2c([nH]1)C(=O)C(=O)c1ccccc1-2 [Example 50] | 100.6 nmol cytochrome C reduced/min/μg protein |
| CN(Cc1nc2c([nH]1)C(=O)C(=O)c1ccccc1-2)c1ccccc1 [Example 51, 2-((methyl (phenyl)amino)methyl)-3H-naphtho[2,1-d]imidazole-4,5-dione] | 140.8 nmol cytochrome C reduced/min/μg protein |
| Cc1cc(F)ccc1N(Cc1nc2c([nH]1)C(=O)C(=O)c1ccccc1-2)C(=O)OC(C)(C)C [Example 52] | 60.3 nmol cytochrome C reduced/min/μg protein |
| Cc1cc(F)ccc1NCc1nc2c([nH]1)C(=O)C(=O)c1ccccc1-2 [Example 53] | 112.6 nmol cytochrome C reduced/min/μg protein |
| O=C1C(=O)c2[nH]c(CCc3ccc(F)cc3)nc2-c2ccccc21 [Example 54] | 126.9 nmol cytochrome C reduced/min/μg protein |
| CN(C)Cc1nc2c([nH]1)C(=O)C(=O)c1ccccc1-2 [Example 59] | 149.3 nmol cytochrome C reduced/min/μg protein |
| CC(c1nc2c([nH]1)C(=O)C(=O)c1ccccc1-2)N(C)C (stereo not drawn) [Example 60] | 140.1 nmol cytochrome C reduced/min/μg protein |
| CC(c1nc2c([nH]1)C(=O)C(=O)c1ccccc1-2)N1CCOCC1 (stereo not drawn) [Example 61] | 204.1 nmol cytochrome C reduced/min/μg protein |
| CN(C)c1nc2c([nH]1)C(=O)C(=O)c1ccccc1-2 [Example 62, 2-(dimethylamino)-3H-naphtho[2,1-d]imidazole-4,5-dione] | 113.3 nmol cytochrome C reduced/min/μg protein |
| O=C1C(=O)c2[nH]c(N3CCCC3)nc2-c2ccccc21 [Example 63, 2-(pyrrolidin-1-yl)-3H-naphtho[2,1-d]imidazole-4,5-dione] | 40.3 nmol cytochrome C reduced/min/μg protein |
| CC(C)c1nc2c(n1CCCl)C(=O)C(=O)c1ccccc1-2 [Example 64] | 189.5 nmol cytochrome C reduced/min/μg protein |
| CC(c1nc2c([nH]1)C(=O)C(=O)c1ccccc1-2)N1CCCC1 (stereo not drawn) [Example 65] | 93.5 nmol cytochrome C reduced/min/μg protein |
| CC(C)c1nc2c(n1CCN1CCOCC1)C(=O)C(=O)c1ccccc1-2 [Example 66] | 56.0 nmol cytochrome C reduced/min/μg protein |
| O=C1C(=O)c2[nH]c(N3CCOCC3)nc2-c2ccccc21 [Example 67, 2-morpholino-3H-naphtho[2,1-d]imidazole-4,5-dione] | 143.1 nmol cytochrome C reduced/min/μg protein |
| CC(C)c1nc2c(n1CCO)C(=O)C(=O)c1ccccc1-2 [Example 68, 3-(2-hydroxyethyl)-2-isopropyl-3H-naphtho[2,1-d]imidazole-4,5-dione] | 143.0 nmol cytochrome C reduced/min/μg protein |
| CC(C)c1nc2c(n1Cn1c(C(C)C)nc3c1C(=O)C(=O)c1ccccc1-3)C(=O)C(=O)c1ccccc1-2 [Example 69] | 160.5 nmol cytochrome C reduced/min/μg protein |
| O=C1C(=O)c2[nH]c(Cl)nc2-c2ccccc21 [Example 70, 2-chloro-3H-naphtho[2,1-d]imidazole-4,5-dione] | 83.9 nmol cytochrome C reduced/min/μg protein |
| CCOc1nc2c([nH]1)C(=O)C(=O)c1ccccc1-2 [Example 71] | 124.7 nmol cytochrome C reduced/min/μg protein |
| CC(C)c1nc2c(n1CCN(C)C)C(=O)C(=O)c1ccccc1-2 [Example 72] | 51.0 nmol cytochrome C reduced/min/μg protein |

| SMILES | NQO1 activity (5 μM, [nmol cytochrome C reduced/min/μg protein]) |
| --- | --- |
| O=C1C(=O)c2[nH]c(C3CCCO3)nc2-c2ccccc21 (stereo not drawn) [Example 73] | 180.8 nmol cytochrome C reduced/min/μg protein |
| CCOc1nc2c(n1C)C(=O)C(=O)c1ccccc1-2 [Example 74] | 193.5 nmol cytochrome C reduced/min/μg protein |
| CN1CCN(c2nc3c([nH]2)C(=O)C(=O)c2ccccc2-3)CC1 [Example 75, 2-(4-methylpiperazin-1-yl)-3H-naphtho[2,1-d]imidazole-4,5-dione] | 26.9 nmol cytochrome C reduced/min/μg protein |
| CC(C)(O)c1nc2c([nH]1)C(=O)C(=O)c1ccccc1-2 [Example 76] | 183.5 nmol cytochrome C reduced/min/μg protein |
| CCC(CC)c1nc2c([nH]1)C(=O)C(=O)c1ccccc1-2 [Example 77] | 223.3 nmol cytochrome C reduced/min/μg protein |
| O=C1C(=O)c2[nH]c(COc3ccc(F)cc3)nc2-c2ccccc21 [Example 79] | 96.9 nmol cytochrome C reduced/min/μg protein |
| Cn1c(COc2ccc(F)cc2)nc2c1C(=O)C(=O)c1ccccc1-2 [Example 80] | 162.6 nmol cytochrome C reduced/min/μg protein |
| CC(C)c1nc2c(n1Cc1ccncc1)C(=O)C(=O)c1ccccc1-2 [Example 81] | 169.4 nmol cytochrome C reduced/min/μg protein |
| CC(F)(F)c1nc2c([nH]1)C(=O)C(=O)c1ccccc1-2 [Example 82] | 70.2 nmol cytochrome C reduced/min/μg protein |
| CC(C)c1nc2c(n1Cc1cccnc1)C(=O)C(=O)c1ccccc1-2 [Example 83] | 162.5 nmol cytochrome C reduced/min/μg protein |
| CC(C)c1nc2c(n1Cc1ccccn1)C(=O)C(=O)c1ccccc1-2 [Example 84] | 172.0 nmol cytochrome C reduced/min/μg protein |
| CC(C)c1nc2c(n1C(C)C)C(=O)C(=O)c1ccccc1-2 [Example 85] | 135.4 nmol cytochrome C reduced/min/μg protein |
| CCc1nc2c(n1CC)C(=O)C(=O)c1ccccc1-2 [Example 86] | 220.0 nmol cytochrome C reduced/min/μg protein |
| O=C1C(=O)c2[nH]c(-c3cccnc3)nc2-c2ccccc21 [Example 87] | 94.7 nmol cytochrome C reduced/min/μg protein |
| CCc1nc2c(n1CC)C(=O)C(=O)c1cc(F)ccc1-2 [Example 88] | 187.4 nmol cytochrome C reduced/min/μg protein |
| CCc1nc2c(n1C(C)C)C(=O)C(=O)c1cc(F)ccc1-2 [Example 89] | 145.0 nmol cytochrome C reduced/min/μg protein |
| CCc1nc2c(n1C(C)C)C(=O)C(=O)c1ccccc1-2 [Example 90] | 241.3 nmol cytochrome C reduced/min/μg protein |
| CC(O)c1nc2c(n1C(C)C)C(=O)C(=O)c1ccccc1-2 (stereo not drawn) [Example 91] | 206.9 nmol cytochrome C reduced/min/μg protein |
| O=C1C(=O)c2[nH]c(-c3nc4c([nH]3)C(=O)C(=O)c3ccccc3-4)nc2-c2ccccc21 [Example 92] | 186.8 nmol cytochrome C reduced/min/μg protein |

— patent US10766882B2, “1,2-naphthoquinone based derivative and method of preparing the same” (YUNGJIN PHARM. CO., LTD., priority 2013, dated 2020)
